Experimental data published in paper PMC7394244 (Journal of medicinal chemistry, 2020).
pEC50, pIC50: −log10 of the molar value. “And” between values parts separate entries of the source, which are not always exact repeats. Equal values may be shown once. Read-outs that look alike come from different tables or passages of the source.

Tests used:
Pf3D7 cells = assay: P. falciparum 3D7 growth inhibition; type: cell-based
PfDHODH = target: T1, PfDHODH (Plasmodium falciparum, UniProt Q08210); assay: biochemical; design: species or system P. falciparum
T1 sequence (Q08210 24-569): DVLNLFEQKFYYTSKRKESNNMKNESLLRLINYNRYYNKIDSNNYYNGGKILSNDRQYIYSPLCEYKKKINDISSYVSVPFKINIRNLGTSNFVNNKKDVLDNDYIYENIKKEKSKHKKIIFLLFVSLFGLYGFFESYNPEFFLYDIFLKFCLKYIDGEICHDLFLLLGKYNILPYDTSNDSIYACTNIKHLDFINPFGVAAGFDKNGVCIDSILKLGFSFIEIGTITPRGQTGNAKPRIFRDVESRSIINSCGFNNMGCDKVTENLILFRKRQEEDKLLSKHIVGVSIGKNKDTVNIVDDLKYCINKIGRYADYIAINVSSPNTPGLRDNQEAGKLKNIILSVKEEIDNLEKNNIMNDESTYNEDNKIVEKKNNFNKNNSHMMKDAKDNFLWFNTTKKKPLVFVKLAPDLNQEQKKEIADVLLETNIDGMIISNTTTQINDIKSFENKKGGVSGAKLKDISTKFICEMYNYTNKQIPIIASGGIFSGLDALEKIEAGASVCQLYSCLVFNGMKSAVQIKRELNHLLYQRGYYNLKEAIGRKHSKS

Plasma protein binding [1] = type: in vitro ADME; conditions: rat plasma
Microsome binding = type: in vitro ADME, human
hERG = hERG (Homo sapiens, UniProt Q12809); assay: hERG IonWorks patch clamp electrophysiology; type: cell-based
Chain of hERG (Q12809 whole entry): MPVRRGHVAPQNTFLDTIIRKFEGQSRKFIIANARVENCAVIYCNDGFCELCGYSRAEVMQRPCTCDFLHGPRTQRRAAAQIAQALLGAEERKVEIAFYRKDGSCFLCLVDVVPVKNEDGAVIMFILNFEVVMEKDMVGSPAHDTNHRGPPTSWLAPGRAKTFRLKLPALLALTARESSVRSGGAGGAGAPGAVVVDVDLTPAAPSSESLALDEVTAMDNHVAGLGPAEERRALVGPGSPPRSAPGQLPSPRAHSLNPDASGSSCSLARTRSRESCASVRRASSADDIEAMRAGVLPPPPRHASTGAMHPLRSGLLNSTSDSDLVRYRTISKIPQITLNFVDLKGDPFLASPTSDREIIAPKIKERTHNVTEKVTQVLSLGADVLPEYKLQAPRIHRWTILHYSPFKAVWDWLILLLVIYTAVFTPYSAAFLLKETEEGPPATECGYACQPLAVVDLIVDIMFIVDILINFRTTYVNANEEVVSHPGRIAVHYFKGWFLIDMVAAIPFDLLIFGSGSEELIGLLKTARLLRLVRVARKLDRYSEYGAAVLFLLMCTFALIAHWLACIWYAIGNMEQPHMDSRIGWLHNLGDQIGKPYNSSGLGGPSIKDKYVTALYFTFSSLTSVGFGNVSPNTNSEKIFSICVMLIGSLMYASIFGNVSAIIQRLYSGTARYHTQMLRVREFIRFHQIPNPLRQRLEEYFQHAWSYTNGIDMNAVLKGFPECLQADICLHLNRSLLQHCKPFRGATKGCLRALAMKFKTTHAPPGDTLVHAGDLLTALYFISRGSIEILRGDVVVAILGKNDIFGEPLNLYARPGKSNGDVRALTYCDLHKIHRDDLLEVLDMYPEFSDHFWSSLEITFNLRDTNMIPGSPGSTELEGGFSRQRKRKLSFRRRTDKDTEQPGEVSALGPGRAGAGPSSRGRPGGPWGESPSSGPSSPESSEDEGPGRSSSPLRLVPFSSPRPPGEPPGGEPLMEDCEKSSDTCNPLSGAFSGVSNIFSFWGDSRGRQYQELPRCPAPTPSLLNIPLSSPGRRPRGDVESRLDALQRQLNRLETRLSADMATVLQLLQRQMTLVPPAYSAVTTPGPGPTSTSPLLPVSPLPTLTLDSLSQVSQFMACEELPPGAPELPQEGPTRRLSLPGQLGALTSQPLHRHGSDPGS

Albumax medium binding = type: in vitro ADME
Plasma protein binding [2] = type: in vitro ADME; conditions: mouse plasma
Plasma protein binding [3] = type: in vitro ADME; conditions: human plasma
KV1.5 K+ = KV1.5 K+ (Homo sapiens, UniProt P22460); assay: Potassium channel IonWorks patch clamp electrophysiology; type: cell-based
Chain of KV1.5 K+ (P22460 whole entry): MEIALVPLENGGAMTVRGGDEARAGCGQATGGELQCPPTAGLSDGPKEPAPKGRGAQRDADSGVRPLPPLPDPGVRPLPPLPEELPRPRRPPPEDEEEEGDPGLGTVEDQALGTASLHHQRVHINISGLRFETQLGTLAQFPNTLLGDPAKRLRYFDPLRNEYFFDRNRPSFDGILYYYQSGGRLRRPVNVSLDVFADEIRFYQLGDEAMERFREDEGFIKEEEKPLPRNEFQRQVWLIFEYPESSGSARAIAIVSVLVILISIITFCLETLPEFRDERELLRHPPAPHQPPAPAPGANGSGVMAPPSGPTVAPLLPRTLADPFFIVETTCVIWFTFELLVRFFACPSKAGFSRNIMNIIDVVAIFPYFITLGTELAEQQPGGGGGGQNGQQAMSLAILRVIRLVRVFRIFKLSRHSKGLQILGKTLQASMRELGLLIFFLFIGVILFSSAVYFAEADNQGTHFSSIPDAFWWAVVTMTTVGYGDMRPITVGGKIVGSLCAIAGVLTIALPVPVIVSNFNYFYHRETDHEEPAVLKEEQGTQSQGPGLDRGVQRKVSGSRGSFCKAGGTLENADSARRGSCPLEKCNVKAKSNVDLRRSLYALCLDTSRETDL

in vivo = conditions: male, Swiss outbred, mouse, plasma, iv
[4] = Blood exposure in P. falciparum-infected SCID mice; type: in vivo; conditions: NOD-scidIL2Rγnull, mouse, whole blood, po
[5] = In vitro metabolism, mouse liver microsomes
[6] = cited from earlier work
[7] = mouse plasma; cited from earlier work
R10C1B = assay: microbe, parasite or virus in culture; conditions: Plasmodium falciparum, read-out: EC50 R10C1B
R2B = assay: microbe, parasite or virus in culture; conditions: Plasmodium falciparum, read-out: EC50 R2B
R1BC1A = assay: microbe, parasite or virus in culture; conditions: Plasmodium falciparum, read-out: EC50 R1BC1A
[8] = cited from earlier work; remark: listed apart in the source
[9] = mouse liver microsomes; cited from earlier work
[10] = rat plasma; cited from earlier work
[11] = human plasma; cited from earlier work
[12] = cited from earlier work; remark: listed apart in the source
[13] = rat liver microsomes; cited from earlier work
[14] = cited from earlier work; remark: listed apart in the source
P. falciparum Dd2 = conditions: read-out: EC50 Dd2 (parental); cited from earlier work
[15] = human liver microsomes; cited from earlier work
[16] = Plasmodium falciparum, read-out: EC50 Pf3D7 cells
[17] = Plasmodium falciparum, read-out: potency on Pf3D7 parasites

## Cc1c(Cc2ccc(C(F)(F)F)nc2)c[nH]c1C(=O)NCC(F)(F)F [Compound 39, 3-Methyl-N-(2,2,2-trifluoroethyl)-4-((6-(trifluoromethyl)pyridin-3-yl)methyl)-1H-pyrrole-2-carboxamide]
Pf3D7 cells; [16]
  pEC50: 7.36
Pf3D7 cells; read-out: EC50 Pf3D7 cells
  pEC50: 7.23

## CCOC(=O)c1[nH]c(C)c(Cc2ccc(OCC)cc2)c1C [Compound 3, Ethyl 4-(4-ethoxybenzyl)-3,5-dimethyl-1H-pyrrole-2-carboxylate]
Pf3D7 cells; [16]
  pEC50: 6.64
Pf3D7 cells; read-out: EC50 Pf3D7 cells
  pEC50: 6.60

## Cc1c(Cc2ccc(C(F)(F)F)cc2Cl)c[nH]c1C(=O)NC1CC1 [Compound 66, 4-(2-chloro-4-(trifluoromethyl)benzyl)-N-cyclopropyl-3-methyl-1H-pyrrole-2-carboxamide]
Pf3D7 cells; [17]
  pEC50: > 7.52

## Cc1[nH]c(C(=O)NC2CCC2)c(C)c1Cc1ccc(C(F)(F)F)cn1 [Compound 25, N-Cyclobutyl-3,5-dimethyl-4-((5-(trifluoromethyl)pyridin-2-yl)methyl)-1H-pyrrole-2-carboxamide]
Pf3D7 cells; [16]
  pEC50: 6.33
Pf3D7 cells; read-out: EC50 Pf3D7 cells
  pEC50: 6.17

## Cc1[nH]c(C(=O)NC2CC2)c(C)c1Cc1ccc(C(F)(F)F)nc1 [Compound 18, N-Cyclopropyl-3,5-dimethyl-4-((6-(trifluoromethyl)pyridin-3-yl)methyl)-1H-pyrrole-2-carboxamide]
Pf3D7 cells; [17]
  pEC50: > 7.30

## Cc1c(Cc2ccc(C(F)(F)F)cc2F)c[nH]c1C(=O)NC1CC1 [Compound 60, N-Cyclopropyl-4-(2-fluoro-4-(trifluoromethyl)benzyl)-3-methyl-1H-pyrrole-2-carboxamide]
Pf3D7 cells; [17]
  pEC50: > 7.52

## Cc1[nH]c(C(=O)NC2CCC2)c(C)c1Cc1ccc(C(F)(F)F)nc1 [Compound 19, N-Cyclobutyl-3,5-dimethyl-4-((6-(trifluoromethyl)pyridin-3-yl)methyl)-1H-pyrrole-2-carboxamide]
PfDHODH; IC50 PfDHODH
  pIC50: 7.14 and 7.38

## CCNC(=O)c1[nH]c(C)c(Cc2ccc(C(F)(F)F)nc2)c1C [Compound 16, N-Ethyl-3,5-dimethyl-4-((6-(trifluoromethyl)pyridin-3-yl)methyl)-1H-pyrrole-2-carboxamide]
Pf3D7 cells; [17]
  pEC50: > 7.30
PfDHODH; potency on PfDHODH
  pIC50: > 7.30

## CCOC(=O)c1[nH]c(C)c(Cc2ccc(C(F)(F)F)cc2)c1C [Compound 4, Ethyl 3,5-dimethyl-4-(4-(trifluoromethyl)benzyl)-1H-pyrrole-2-carboxylate]
Pf3D7 cells; [16]
  pEC50: 7.21
Pf3D7 cells; read-out: EC50 Pf3D7 cells
  pEC50: 7.15

## Cc1c(Cc2ccc(C(F)(F)F)nc2)c[nH]c1C(=O)NC1CC1 [Compound 37]
Plasma protein binding [1]
  R plasma protein binding: 88.2 % bound
Microsome binding
  Microsome binding: 29.9 % bound
hERG
  Human Ion Channel activity hERG: >33 µM
Albumax medium binding
  Albumax binding: 51.8 % bound
Plasma protein binding [2]
  M plasma protein binding: 88 % bound and 88.9 % bound
Plasma protein binding [3]
  H plasma protein binding: 90 % bound
KV1.5 K+
  Human Ion Channel activity KV1.5 K+: >11 µM
In vivo
  clearance at 24 h: 26.1 mL/min/kg
[4]; 10 mg/kg
  AUC(0-t): 680 ng·h/mL
[4]; 50 mg/kg
  AUC(0-t): 8600 ng·h/mL
  Cmax: 2520 ng/mL

## Cc1cc(Nc2ccc(S(F)(F)(F)(F)F)cc2)n2nc(C(C)(F)F)nc2n1 [Compound 1]
[5]
  microsomal CLint at 1 μM: 8 µL/min/mg
[6]
  Albumax binding: 83.1 % bound
[7]
  M plasma protein binding: 99.7 % bound
R10C1B
  pEC50: 6.92
R2B
  pEC50: 7.13
R1BC1A
  pEC50: 7.10
[8]
  human half-life: ~ 100 hours
[9]
  M CLint: <7 / <7 / <7 μL/min/mg
[10]
  R plasma protein binding: 97.0 % bound
[11]
  H plasma protein binding: 99.9 % bound
[12]
  Microsome binding: 71.7 % bound
[13]
  R CLint: <7 / <7 / <7 μL/min/mg
[14]
  Solubility FeSSIF (pH 5.8): 27.6 μg/mL
P. falciparum Dd2
  pEC50: 8.34
[15]
  H CLint: <7 / <7 / <7 μL/min/mg
